Data taken from patent US12642803B2, “Pharmaceutical aqueous formulation comprising 1-(4-{[4-(dimethylamino)piperidin-1-yl]carbonyl}phenyl)-3-[4-(4,6-dimorpholin-4-yl-1,3,5-triazin-2-yl)phenyljurea” (PFIZER INC., priority 2017, dated 2026).

How the values were obtained:
[1] = Chemical and physical storage stability of the crystalline free base; type: physicochemical; settings: crystalline form, 25° C. and 60% Relative Humidity (RH)
Experimental: (§1) 1-(4-{[4-(Dimethylamino)piperidin-1-yl]carbonyl}phenyl)-3-[4-(4,6-dimorpholin-4-yl-1,3,5-triazin-2-yl)phenyl]urea may be prepared in crystalline form and is chemically and physically stable at 25° C. and 60% Relative Humidity (RH) for up to 3 years in this form.

[2] = Water solubility of the free base; type: physicochemical; settings: for an aqueous solution formulation for intravenous or parenteral administration at the therapeutic dosage levels required
Experimental: as §1

[3] = only with lactic acid and orthophosphoric acid, of ten acids tested; WO2016/097949; cited from earlier work
[4] = Visual analysis (European Pharmacopoeia Method 2.9.20) and OPM analysis for crystallites or particles (clear solution); type: physicochemical; settings: for Solution concentration at which the necessary clear solutions are not obtained, or are not obtained consistently: pH required for intravenous administration
Description: A “clear solution” is defined herein as a visually clear solution, which may bear a solution opalescence, that is essentially free from any visible particulates that can be observed on a visual inspection. Generally, if any particulate matter is observed, the formulation is not suitable for intravenous administration and should not be utilised as occlusion of blood vessels may occur. Accordingly, in view of the qualitative nature of the visual test, the term “essentially free from any visible particulates” is usually applied when no visible particulate matter is observed.
The visual inspection can be conducted in accordance with the method defined in European Pharmacopoeia Method 2.9.20 entitled “Particulate contamination: visible particles”. This method determines particulate contamination of injections and infusions by extraneous, mobile, undissolved particles, other than gas bubbles, that may be present in the solutions. […]
A sample of the formulation was analysed in accordance with the visual method defined in European Pharmacopoeia Method 2.9.20 (using a Verivide (trade mark) light cabinet and a light meter reading of 3250 lux against a matt black panel and a white panel) to determine if crystallites or particles were present. […]
A sample of the formulation was placed on a clean glass microscopy slide and covered with a glass cover slip. It was then analysed by OPM using both non-polarised and cross-polarised light under a Nikon LV 100POL (trade mark) microscope with a 10× magnification lens and a 10× magnification eyepiece to determine if crystallites or particles were present. The image was recorded using a DFK 23UP031 TIS USB 3.0 CMOS (trade mark) Colour Industrial Camera 5MP 1/2,5″ and image capture software. […]
These Examples were analysed by the visual method defined in European Pharmacopoeia Method 2.9.20 and the OPM method both as described in Example 1.
The Examples shown in the following Table were analysed by the visual method defined in European Pharmacopoeia Method 2.9.20 and the OPM method both as described in Example 1. […]

- Time for which chemically and physically stable [1]: up to 3 years
- Water solubility [2]: insufficiently water soluble
- Solution concentration at which the necessary clear solutions are not obtained, or are not obtained consistently ([4]; formulations comprising ethanesulphonic acid): ≥ 35 mg/mL
- Solution concentration at which the necessary clear solutions are not obtained, or are not obtained consistently ([4]; formulations comprising methanesulphonic acid): ≥ 35 mg/mL
- Solution concentration achieved as clear, essentially particle-free solution ([4]; use of methanesulphonic acid and ethanesulphonic acid, free base concentration): up to 30 mg/ml
Structure (SMILES): CN(C)C1CCN(C(=O)c2ccc(NC(=O)Nc3ccc(-c4nc(N5CCOCC5)nc(N5CCOCC5)n4)cc3)cc2)CC1 [1-(4-{[4-(Dimethylamino)piperidin-1-yl]carbonyl}phenyl)-3-[4-(4,6-dimorpholin-4-yl-1,3,5-triazin-2-yl)phenyl]urea]
- Concentration achieved as a clear solution [3]: ≥ 3 mg/mL
